Columns and labels:
[1] = test system: wheat; test: Test A postemergence; type: in vivo, Triticum aestivum; details: Triticum aestivum, post-emergence, 240 h, 0 to 100 scale (0 no effect, 100 complete control), approx. 10 d, read-out: Plant response rating, Wheat; for plant injury at 125 g/ha: 125 g ai/ha; for plant injury at 500 g/ha: 500 g ai/ha
Outline: (§1)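 For preemergence, seeds were sown in a loam soil-sand blend and given a directed soil spray of test chemical in a non-phytotoxic solvent mixture with surfactant. For postemergence, plants in pots of the same blend were sprayed with the same formulation at the one- to two-leaf stage, 2 to 10 cm tall.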

[2] = test system: barnyardgrass; test: Test A preemergence; type: in vivo, Echinochloa crus-galli; details: Echinochloa crus-galli, pre-emergence, 240 h, 0 to 100 scale (0 no effect, 100 complete control), read-out: Plant response rating, Barnyardgrass; for pest or weed control at 125 g/ha: 125 g ai/ha; for pest or weed control at 500 g/ha: 500 g ai/ha, approx. 10 d
Outline: as §1

[3] = test system: pigweed; test: Test A postemergence; type: in vivo, Amaranthus retroflexus; details: Amaranthus retroflexus, post-emergence, 240 h, 0 to 100 scale (0 no effect, 100 complete control), approx. 10 d, read-out: Plant response rating, Pigweed; for pest or weed control at 125 g/ha: 125 g ai/ha; for pest or weed control at 500 g/ha: 500 g ai/ha
Outline: as §1

[4] = test system: barnyardgrass; test: Test B flooded paddy test; type: in vivo, Echinochloa crus-galli; details: Echinochloa crus-galli, 360 h, 125 g ai/ha, applied to paddy water at 2-leaf stage, visual rating after 13 to 15 d, scale 0 (no effect) to 100 (complete control), read-out: Plant response rating, Barnyardgrass, Flood
Outline: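 Pots were flooded to 3 cm above the soil at treatment, and compounds were applied directly into the paddy water. That depth was held throughout. After 13 to 15 d in a greenhouse, plants were rated visually against untreated controls.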

[5] = test system: foxtail, giant; test: Test A postemergence; type: in vivo, Setaria faberii; details: Setaria faberi, post-emergence, 240 h, 0 to 100 scale (0 no effect, 100 complete control), approx. 10 d, read-out: Plant response rating, Foxtail, Giant; for pest or weed control at 125 g/ha: 125 g ai/ha; for pest or weed control at 500 g/ha: 500 g ai/ha
Outline: as §1

Structure (SMILES)	plant injury at 125 g/ha [1] [%]	plant injury at 500 g/ha [1] [%]	pest or weed control at 125 g/ha [2] [%]	pest or weed control at 500 g/ha [2] [%]	pest or weed control at 125 g/ha [3] [%]	pest or weed control at 500 g/ha [3] [%]	pest or weed control at 125 g/ha [4] [%]	pest or weed control at 125 g/ha [5] [%]	pest or weed control at 500 g/ha [5] [%]
CCn1nc(-c2ccc(F)cc2)nc1C(=O)c1ccnc(C(F)(F)F)c1 [Compound 19, [1-ethyl-3-(4-fluorophenyl)-1H-1,2,4-triazol-5-yl][2-(trifluoromethyl)-4-pyridinyl]methanone]	0	0	0	0	0	30	0	0	0
CS(=O)(=O)c1nc(-c2ccc(F)cc2)nn1Cc1ccnc(C(F)(F)F)c1 [Compound 29, 4-[[3-(4-fluorophenyl)-5-(methylsulfonyl)-1H-1,2,4-triazole-1-yl]methyl]-2-(trifluoromethyl)pyridine]	0	0	0	0	0	0	0	0	0
